{
  "source": "patent US11945822B2",
  "about": "“Pyrazolo-triazine and/or pyrazolo-pxrimidine derivatives as selective inhibitor of cyclin dependent kinase” (QURIENT CO., LTD., priority 2018, dated 2024)",
  "key": {"CDK16/CycY": {"biological_target": "T1, CDK16/CycY (Homo sapiens, UniProt Q00536)", "T1 construct": "either as full-length or enzymatically active fragments; purchased ProQinase GmbH (Freiburg, Germany)", "T1 sequence (Q00536 whole entry, the tested form may be a part)": "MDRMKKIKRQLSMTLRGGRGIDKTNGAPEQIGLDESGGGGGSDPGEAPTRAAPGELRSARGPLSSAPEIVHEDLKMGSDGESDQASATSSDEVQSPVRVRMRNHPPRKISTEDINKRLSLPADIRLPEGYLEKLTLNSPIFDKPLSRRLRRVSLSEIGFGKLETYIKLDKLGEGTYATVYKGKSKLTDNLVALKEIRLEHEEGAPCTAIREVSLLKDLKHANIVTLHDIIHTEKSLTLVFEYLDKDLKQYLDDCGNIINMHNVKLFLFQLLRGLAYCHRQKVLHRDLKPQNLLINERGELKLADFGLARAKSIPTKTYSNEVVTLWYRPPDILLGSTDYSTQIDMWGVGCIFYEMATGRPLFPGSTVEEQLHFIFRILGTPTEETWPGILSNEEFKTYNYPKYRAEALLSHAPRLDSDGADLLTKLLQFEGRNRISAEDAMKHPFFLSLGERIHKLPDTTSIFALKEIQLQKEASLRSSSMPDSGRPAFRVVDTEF", "T1 sequence (Q8ND76 whole entry partner, the tested form may be a part)": "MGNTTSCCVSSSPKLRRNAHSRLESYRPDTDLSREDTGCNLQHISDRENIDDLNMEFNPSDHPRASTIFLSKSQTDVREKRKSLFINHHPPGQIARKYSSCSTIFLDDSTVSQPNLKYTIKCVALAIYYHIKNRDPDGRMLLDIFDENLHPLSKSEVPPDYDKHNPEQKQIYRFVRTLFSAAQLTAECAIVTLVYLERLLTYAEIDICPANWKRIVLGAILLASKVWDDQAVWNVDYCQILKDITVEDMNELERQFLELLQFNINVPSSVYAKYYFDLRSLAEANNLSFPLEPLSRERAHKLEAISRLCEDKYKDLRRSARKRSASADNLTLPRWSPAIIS", "test": "In vitro IC50 profile for CDKs family kinase (33PanQinase radiometric assay)", "assay_type": "biochemical", "details": "CDK7 selectivity profile in CDKs family", "protocol": "(§1) In Vitro IC50 Profile for CDK7 Inhibitor Among 28 CDKs Family Kinases.\n(§2) The IC50 profile of compounds were determined using 28 CDKs family protein kinases through ProQinase GmbH (Freiburg, Germany). All the protocol and materials had been provided by ProQinase GmbH. Briefly, in the process, 90 μl H2O were added to each well of a compound dilution plate. To minimize potential precipitation, the H2O was added to the plate only a few minutes before the transfer of the compound solutions into the assay plates. The plate was shaken thoroughly, resulting in a “compound dilution plate/10% DMSO”. The compound dilution plate(s) were discarded at the end of the working day. For the assays (see below), 5 μl solution from each well of the compound dilution plate were transferred into the assay plates. The final volume of the assay was 50 μl. All compounds were tested at 10 final assay concentrations in the range from 1×10^−05 M to 3×10^−10 M. The final DMSO concentration in the reaction cocktails was 1% in all cases. All protein kinases provided by ProQinase were expressed in Sf9 insect cells or in E. coli as recombinant GST-fusion proteins or His-tagged proteins, either as full-length or enzymatically active fragments. All kinases were produced from human cDNAs and purified by either GSH affinity chromatography or immobilized metal affinity chromatography. The purity of the protein kinases was examined by SDS-PAGE/Coomassie staining, the identity was checked by mass spectroscopy. Kinases from external vendors, Carna Biosciences Inc.; Invitrogen Corp.; and Millipore Corp., were expressed, purified and quality-controlled by virtue of the vendors readings. A radiometric protein kinase assay (^33PanQinase® Activity Assay) was used for measuring the kinase activity of the 28 protein kinases. All kinase assays were performed in 96-well FlashPlates™ from PerkinElmer (Boston, MA, USA) in a 50 μl reaction volume. The reaction cocktails were incubated at 30° C. for 60 minutes. The reaction was stopped with 50 μl of 2% (v/v) H3PO4, plates were aspirated and washed two times with 200 μl 0.9% (w/v) NaCl. Incorporation of ^33Pi was determined with a microplate scintillation counter (Microbeta, Wallac). All assays were performed with a BeckmanCoulter/SAGIAN™ Core System. As part of the data evaluation the low control value from a particular plate was subtracted from the high control value as well as from all 80 “compound values” of the corresponding plate. The residual activity (in %) for each well of a particular plate was calculated by using the following formula: Res. Activity (%)=100×[(cpm of compound−low control)/(high control−low control)]. Results are represented in table (table 10)."}, "CDK19/CycC": {"biological_target": "T2, CDK19/CycC (Homo sapiens, UniProt Q9BWU1)", "T2 construct": "either as full-length or enzymatically active fragments; purchased ProQinase GmbH (Freiburg, Germany)", "T2 sequence (Q9BWU1 whole entry, the tested form may be a part)": "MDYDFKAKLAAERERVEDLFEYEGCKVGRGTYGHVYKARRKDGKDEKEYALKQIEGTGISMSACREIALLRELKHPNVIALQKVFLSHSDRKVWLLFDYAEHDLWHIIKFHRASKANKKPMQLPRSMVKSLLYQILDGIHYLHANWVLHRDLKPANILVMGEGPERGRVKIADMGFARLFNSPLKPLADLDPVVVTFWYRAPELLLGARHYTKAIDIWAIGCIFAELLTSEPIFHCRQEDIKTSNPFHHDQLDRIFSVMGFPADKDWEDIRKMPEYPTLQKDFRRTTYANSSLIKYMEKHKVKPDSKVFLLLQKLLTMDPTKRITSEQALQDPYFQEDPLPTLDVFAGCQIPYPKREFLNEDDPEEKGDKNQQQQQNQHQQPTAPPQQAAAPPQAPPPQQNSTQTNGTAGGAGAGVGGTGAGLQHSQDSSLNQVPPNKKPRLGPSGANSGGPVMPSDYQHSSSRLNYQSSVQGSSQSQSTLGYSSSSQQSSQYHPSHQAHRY", "T2 sequence (P24863 whole entry partner, the tested form may be a part)": "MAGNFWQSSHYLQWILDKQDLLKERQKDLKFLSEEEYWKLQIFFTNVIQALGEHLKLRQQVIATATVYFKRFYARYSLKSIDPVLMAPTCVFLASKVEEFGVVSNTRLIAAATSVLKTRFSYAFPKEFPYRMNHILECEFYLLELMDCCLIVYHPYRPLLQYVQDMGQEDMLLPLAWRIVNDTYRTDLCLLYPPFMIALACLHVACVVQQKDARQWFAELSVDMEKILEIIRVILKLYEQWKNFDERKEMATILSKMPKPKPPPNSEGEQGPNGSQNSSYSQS", "test": "In vitro IC50 profile for CDKs family kinase (33PanQinase radiometric assay)", "assay_type": "biochemical", "details": "CDK7 selectivity profile in CDKs family", "protocol": "as §1, §2"}, "CDK1/CycE1": {"biological_target": "T3, CDK1/CycE1 (Homo sapiens, UniProt P06493)", "T3 construct": "purchased ProQinase GmbH", "T3 sequence (P06493 whole entry)": "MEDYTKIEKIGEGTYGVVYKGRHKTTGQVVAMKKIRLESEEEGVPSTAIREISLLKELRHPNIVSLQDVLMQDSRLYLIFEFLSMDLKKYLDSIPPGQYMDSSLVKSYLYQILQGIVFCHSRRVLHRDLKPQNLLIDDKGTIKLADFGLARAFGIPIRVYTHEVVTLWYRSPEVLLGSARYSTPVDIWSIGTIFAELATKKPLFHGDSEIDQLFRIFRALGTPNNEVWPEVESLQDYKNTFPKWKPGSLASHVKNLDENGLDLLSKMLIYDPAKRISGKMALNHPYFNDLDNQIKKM", "T3 sequence (P24864 whole entry partner)": "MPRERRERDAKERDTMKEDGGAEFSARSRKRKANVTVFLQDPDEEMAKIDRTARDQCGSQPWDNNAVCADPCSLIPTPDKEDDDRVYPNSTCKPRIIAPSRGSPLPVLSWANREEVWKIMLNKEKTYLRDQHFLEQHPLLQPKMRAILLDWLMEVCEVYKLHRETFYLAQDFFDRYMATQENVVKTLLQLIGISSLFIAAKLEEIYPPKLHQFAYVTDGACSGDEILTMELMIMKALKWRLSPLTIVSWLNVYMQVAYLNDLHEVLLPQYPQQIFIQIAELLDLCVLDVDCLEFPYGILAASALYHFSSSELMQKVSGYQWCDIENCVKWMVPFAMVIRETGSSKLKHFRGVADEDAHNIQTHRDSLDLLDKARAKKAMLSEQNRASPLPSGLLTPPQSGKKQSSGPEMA", "test": "In vitro IC50 profile for CDKs family kinase (33PanQinase radiometric assay)", "assay_type": "biochemical", "details": "CDK7 selectivity profile in CDKs family", "protocol": "as §1, §2"}, "H460": {"test_system": "H460", "test": "Cellular H460 viability assay (CellTiter-Glo, 72 hours)", "assay_type": "cell-based", "details": "Homo sapiens, NCI-H460", "in_short": "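Mycoplasma-tested cells, seeded at densities chosen for each line, received compound or DMSO vehicle (under 0.1% final) for 72 hours. Duplicate cultures were then read for viability by CellTiter-Glo luminescence.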"}, "OVCAR-3": {"test_system": "OVCAR-3", "test": "Cellular OVCAR-3 viability assay (CellTiter-Glo, 72 hours)", "assay_type": "cell-based", "details": "Homo sapiens", "excerpt": "Human T-cell acute lymphoblastic leukemia cell line, MOLT-4 (ATCC, Cat #CRL-1582), Human multiple myeloma cell line, RPMI-8226 (Invitrogen, Cat #22400-089) and MM.1S (ATCC, Cat #CRL-2974), NSCLC (Non-small cell lung cancer) cell line H460 (ATCC, Cat #HTB-177), Human colon colorectal carcinoma cell line HCT116 (ATCC, Cat #CCL-247), Human acute monocytic leukemia cell line MV4-11 (ATCC, Cat #CRL-9591), OVCAR-3 (ATCC, Cat #HTB-161) and A2780 (ECACC, Cat #93112519) were obtained from ATCC. Cells were grown in RPMI-1640 media (Invitrogen, Cat #22400-089) supplemented with 10% FBS (Invitrogen, Cat #10099141) and 1% penicillin/streptomycin (Invitrogen, Cat #15070063) and cultured at 37° C., 5% CO2 in a humidified chamber. All cell lines were routinely tested for mycoplasma.\nThe effect of the CDK7 inhibitor to inhibit the growth of target cancer cells was evaluated through the 72 hours time period of viability assay. Briefly, the candidate cell line ware plated in 96 well plate at the following density of cells respectively. 1×10^4 cells/well for MOLT-4, RPMI-8226, MV4-11 and MM.1S, 5×10^3 for H460, HCT116 and OVCAR-3 and IX 10^3 for A2780. After 24 hours, the cells were treated with various concentrations of the compound (ranging from 0.0015 uM to 10 uM). DMSO solvent without compound served as a control and final DMSO concentration less than 0.1%. After 72 hours of incubation at 37° C., 5% CO2 incubator, cells were analyzed for the viability using the CellTiter-Glo Luminescent Cell Viability Assay (Promega, Cat #G7570). All viability assays were performed in duplicate and Luminescence was read using an Envision (Perkin Elmer, USA). Data was analyzed using XLfit software."}},
  "data": [
    {"smiles": "CC(C)c1cnn2c(NCc3c(Cl)cccc3-n3ccc(C(C)(C)O)n3)nc(N3CCC(N)CC3)nc12", "note": "[Compound 210]", "values": [
      {"measurement": "IC50", "setting": "CDK16/CycY", "result": 3.96, "unit": "µM"},
      {"measurement": "IC50", "setting": "CDK19/CycC", "result": "> 10", "unit": "µM"},
      {"measurement": "IC50", "setting": "CDK1/CycE1", "result": "> 10", "unit": "µM"},
      {"measurement": "IC50", "setting": "H460", "result": "< 1", "unit": "µM"},
      {"measurement": "IC50", "setting": "OVCAR-3", "result": "≤ 1", "unit": "µM"}
    ]}
  ]
}
